Columns and labels:
Experiment in all cases: relative viability (nuclei count vs DMSO), 5 days (fraction); higher = more cells survive
[1] = compound: O=C(O)c1ccc2c(c1)nc(Nc1cccc(Cl)c1)c1ccncc12 [Silmitasertib]
Outline: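 For viability, nuclei in each treated well were divided by nuclei in vehicle wells and the median across plates was taken. Lung cancer cell lines in 1536-well plates were pinned with five library-drug doses (not always all listed) spaced by √10, cultured 5 days without medium change, and imaged at 4× after Hoechst staining, with plates passing only at control CV below 25% and at least one doubling.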

[2] = compound: O=C(O)c1ccc2c(c1)nc(Nc1cccc(Cl)c1)c1ccncc12 [Silmitasertib] + CC1(C)CCC(c2ccc(Cl)cc2)=C(CN2CCN(c3ccc(C(=O)NS(=O)(=O)c4ccc(N[C@H](CCN5CCOCC5)CSc5ccccc5)c(S(=O)(=O)C(F)(F)F)c4)cc3)CC2)C1 [Navitoclax] (partner 0.5 µM)
Outline: (§1)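 Dosing by pin tool came one day after lung cancer cell lines were seeded in 1536-well plates, using either one drug or a fixed anchor-drug dose plus five library-drug doses (not always all listed) in √10 steps. After 5 days, nuclei were counted on 4× images. Relative viability is treated-well nuclei count divided by vehicle-well nuclei count, and values are medians of duplicate plates.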

[3] = compound: O=C(O)c1ccc2c(c1)nc(Nc1cccc(Cl)c1)c1ccncc12 [Silmitasertib] + O=C(CCCCCCC(=O)Nc1ccccc1)NO [Vorinostat] (partner 1 µM)
Outline: as §1

[4] = compound: O=C(O)c1ccc2c(c1)nc(Nc1cccc(Cl)c1)c1ccncc12 [Silmitasertib] + COc1cc2c(Oc3ccc(NC(=O)C4(C(=O)Nc5ccc(F)cc5)CC4)cc3F)ccnc2cc1OCCCN1CCOCC1 [Foretinib] (partner 0.25 µM)
Outline: as §1

[5] = compound: O=C(O)c1ccc2c(c1)nc(Nc1cccc(Cl)c1)c1ccncc12 [Silmitasertib] + CS(=O)(=O)N1CCN(Cc2cc3nc(-c4cccc5[nH]ncc45)nc(N4CCOCC4)c3s2)CC1 [Pictilisib] (partner 1 µM)
Outline: as §1

[6] = compound: O=C(O)c1ccc2c(c1)nc(Nc1cccc(Cl)c1)c1ccncc12 [Silmitasertib] + C[C@@H](Oc1cc(-c2cnn(C3CCNCC3)c2)cnc1N)c1c(Cl)ccc(F)c1Cl [Crizotinib] (partner 1 µM)
Outline: as §1

[7] = compound: O=C(O)c1ccc2c(c1)nc(Nc1cccc(Cl)c1)c1ccncc12 [Silmitasertib] + Cc1nc(NC(=O)N2CCC[C@H]2C(N)=O)sc1-c1ccnc(C(C)(C)C(F)(F)F)c1 [Alpelisib] (partner 2 µM)
Outline: as §1

[8] = compound: O=C(O)c1ccc2c(c1)nc(Nc1cccc(Cl)c1)c1ccncc12 [Silmitasertib] + CC(C)C[C@H](NC(=O)[C@H](Cc1ccccc1)NC(=O)c1cnccn1)B(O)O [Bortezomib] (partner 0.002 µM)
Outline: as §1

[9] = compound: O=C(O)c1ccc2c(c1)nc(Nc1cccc(Cl)c1)c1ccncc12 [Silmitasertib] + C[C@]1(O)C[C@@H](c2nc(-c3ccc4ccc(-c5ccccc5)nc4c3)c3c(N)nccn32)C1 [Linsitinib] (partner 1 µM)
Outline: as §1

[10] = compound: O=C(O)c1ccc2c(c1)nc(Nc1cccc(Cl)c1)c1ccncc12 [Silmitasertib] + O=C(c1cc(Cc2n[nH]c(=O)c3ccccc23)ccc1F)N1CCN(C(=O)C2CC2)CC1 [Olaparib] (partner 8 µM)
Outline: as §1

[11] = compound: O=C(O)c1ccc2c(c1)nc(Nc1cccc(Cl)c1)c1ccncc12 [Silmitasertib] + CS(=O)(=O)CCNCc1ccc(-c2ccc3ncnc(Nc4ccc(OCc5cccc(F)c5)c(Cl)c4)c3c2)o1 [Lapatinib] (partner 2 µM)
Outline: as §1

IA-LM
relative viability ([1]; 0.04 µM): 1.03 | relative viability ([1]; 0.4 µM): 0.749 | relative viability ([1]; 1.265 µM): 1.08 | relative viability ([1]; 4 µM): 0.409 | relative viability ([2]; first compound 0.04 µM): 1.08 | relative viability ([2]; first compound 0.4 µM): 0.665 | relative viability ([2]; first compound 1.265 µM): 0.968 | relative viability ([2]; first compound 4 µM): 0.623 | relative viability ([3]; first compound 0.04 µM): 1.05 | relative viability ([3]; first compound 1.265 µM): 1.21 | relative viability ([3]; first compound 4 µM): 0.538 | relative viability ([4]; first compound 0.04 µM): 1.1 | relative viability ([4]; first compound 0.4 µM): 0.886 | relative viability ([4]; first compound 1.265 µM): 1.14 | relative viability ([4]; first compound 4 µM): 0.716 | relative viability ([5]; first compound 0.04 µM): 0.346 | relative viability ([5]; first compound 0.4 µM): 0.267 | relative viability ([5]; first compound 1.265 µM): 0.233 | relative viability ([5]; first compound 4 µM): 0.149 | relative viability ([6]; first compound 0.04 µM): 0.792 | relative viability ([6]; first compound 0.4 µM): 0.725 | relative viability ([6]; first compound 1.265 µM): 0.916 | relative viability ([6]; first compound 4 µM): 0.659 | relative viability ([7]; first compound 0.04 µM): 0.717 | relative viability ([7]; first compound 0.4 µM): 0.901 | relative viability ([7]; first compound 1.265 µM): 0.942 | relative viability ([7]; first compound 4 µM): 0.84 | relative viability ([8]; first compound 0.04 µM): 0.879 | relative viability ([8]; first compound 0.4 µM): 0.632 | relative viability ([8]; first compound 1.265 µM): 1.01 | relative viability ([8]; first compound 4 µM): 0.586 | relative viability ([9]; first compound 0.04 µM): 0.657 | relative viability ([9]; first compound 0.4 µM): 0.559 | relative viability ([9]; first compound 1.265 µM): 0.717 | relative viability ([9]; first compound 4 µM): 0.236 | relative viability ([10]; first compound 0.04 µM): 0.899 | relative viability ([10]; first compound 0.4 µM): 0.561 | relative viability ([10]; first compound 1.265 µM): 0.791 | relative viability ([10]; first compound 4 µM): 0.614 | relative viability ([11]; first compound 0.04 µM): 1.1 | relative viability ([11]; first compound 0.4 µM): 0.615 | relative viability ([11]; first compound 1.265 µM): 0.967 | relative viability ([11]; first compound 4 µM): 0.203

NCI-H1299
relative viability ([1]; 0.04 µM): 1.05 | relative viability ([1]; 0.4 µM): 1.03 | relative viability ([1]; 1.265 µM): 0.945 | relative viability ([1]; 4 µM): 0.834 | relative viability ([2]; first compound 0.04 µM): 1.1 | relative viability ([2]; first compound 0.4 µM): 1.02 | relative viability ([2]; first compound 1.265 µM): 1.06 | relative viability ([2]; first compound 4 µM): 1.05 | relative viability ([4]; first compound 0.04 µM): 1.19 | relative viability ([4]; first compound 0.4 µM): 1.08 | relative viability ([4]; first compound 1.265 µM): 1.02 | relative viability ([4]; first compound 4 µM): 1.13 | relative viability ([5]; first compound 0.04 µM): 1.07 | relative viability ([5]; first compound 0.4 µM): 0.559 | relative viability ([5]; first compound 1.265 µM): 0.343 | relative viability ([5]; first compound 4 µM): 0.277 | relative viability ([6]; first compound 0.04 µM): 0.956 | relative viability ([6]; first compound 0.4 µM): 0.99 | relative viability ([6]; first compound 1.265 µM): 0.994 | relative viability ([6]; first compound 4 µM): 0.764 | relative viability ([7]; first compound 0.04 µM): 1.08 | relative viability ([7]; first compound 0.4 µM): 1.04 | relative viability ([7]; first compound 1.265 µM): 1.02 | relative viability ([7]; first compound 4 µM): 0.826 | relative viability ([8]; first compound 0.04 µM): 1.08 | relative viability ([8]; first compound 0.4 µM): 1.01 | relative viability ([8]; first compound 1.265 µM): 0.988 | relative viability ([8]; first compound 4 µM): 1.04 | relative viability ([9]; first compound 0.04 µM): 0.96 | relative viability ([9]; first compound 0.4 µM): 1.01 | relative viability ([9]; first compound 1.265 µM): 0.901 | relative viability ([9]; first compound 4 µM): 0.587 | relative viability ([10]; first compound 0.04 µM): 0.946 | relative viability ([10]; first compound 0.4 µM): 1.02 | relative viability ([10]; first compound 1.265 µM): 0.872 | relative viability ([10]; first compound 4 µM): 0.803 | relative viability ([11]; first compound 0.04 µM): 0.989 | relative viability ([11]; first compound 0.4 µM): 0.949 | relative viability ([11]; first compound 1.265 µM): 0.894 | relative viability ([11]; first compound 4 µM): 0.804

Reference: the supplement of paper PMC10307832
